{"source": "patent US11980633B2", "about": "“Method for treating cancer using a combination of DNA-damaging agents and DNA-PK inhibitors” (Vertex Pharmaceuticals Incorporated, priority 2016, dated 2024)", "test_system": "A549 lung cancer cells", "assay": "Timing and duration of Compound B-2 exposure on sensitization of A549 cells to doxorubicin hydrochloride (24 h); CellTiterGlo viability at 6 days, Bliss analysis", "assay_type": "cell-based, human", "parameters": "scale not given here", "protocol": "Cell lines, reagents, equipment, software: The human cancer cell line A549 (CCL-185) was obtained from American Type Culture Collection (ATCC; Manassas, VA). Compound B-2 used in these experiments was not prepared as a co-crystal. A 10 mM stock solution of Compound B-2 was prepared in DMSO (ATCC catalog #4-X) and stored at −20° C. Doxorubicin hydrochloride (dox) was obtained from Sigma (St. Louis, MO) (catalog #D1515), dissolved in DMSO to a 10 mM concentration and stored at −20° C.\nCell culture: The A549 human lung cancer cell line was cultured in DMEM (Life Technologies, catalog #11995) supplemented with 10% fetal bovine serum (Hyclone, catalog #SH30071.03), 1× GlutaMAX (Life Technologies, catalog #35050-061), pyruvate (Life Technologies, catalog #11360-070) and 1× Penicillin/Streptomycin (Life Technologies, catalog #15070) (complete medium). Cells were maintained at a sub-confluent state by passaging every 3-4 days. Cells were plated at 1000 cells per well in a 96-well, clear-bottomed microplate (Corning, catalog #3904), and incubated in a 37° C., 5% CO2 incubator attach overnight prior to compound addition.\nTreatment with Compound B-2 and Doxorubicin hydrochloride: Ten mM stocks of Compound B-2 and doxorubicin hydrochloride were made in DMSO and added in combination to the plated cells using an HP digital dispenser D300 (Tecan, Switzerland). For these experiments, combinations with Compound B-2 at all concentrations were run in singlicate using a combination matrix in which Compound B-2 was added as a titration from 20 μM to 0.1 μM on the X-axis of the plate and doxorubicin hydrochloride added in a 2-fold dilution from 80 nM to 0.125 nM for the 6 day and 24 hour co-incubation experiments and 8 nM to 0.0125 nM for the rest of the experiments on the Y-axis. One row contained only the Compound B-2 titration and one column only the doxorubicin hydrochloride titration. Two columns of cells were used as a no-treatment control from which the fractional survival of the treated cells was determined. Cells were cultured at 37° C., 5% CO2, 95% air and 100% relative humidity. The timing of compound addition, the washout of the compounds from the wells of the plates and re-addition of doxorubicin hydrochloride was as detailed in FIG. 1. Briefly, the media from all of the wells in the plate were removed by hand using a multi-pipette, fresh (no compound) media was added, then removed again and then fresh media was added one last time. The re-addition of doxorubicin hydrochloride, where indicated, was performed using the HP D300 as outlined in FIG. 1. After 24 h, all plates were washed as detailed above and fresh medium (no compound) added. The plates were incubated for an additional 5 days (6 days in total).\nCell Viability Analysis: Six days after initial compound addition, 50 μL of CellTiterGlo (prepared according to manufacturer's protocol) was added to each well of the compound titration plates. Luminescence was read on a Pherastar FS luminescence reader (BMG Labtech, Offenberg, Germany) and these values were used for all further analyses.\nComputational Methods: Cell viabilities were evaluated for a matrix of doxorubicin hydrochloride and Compound B-2 concentrations in a series of experiments testing different times of Compound B-2 addition and durations of Compound B-2 exposure. The data from each of these experiments were analyzed separately. The steps in the analysis of each experiment are described below. • 1. For each Compound B-2 concentration, the EC50 of doxorubicin hydrochloride was calculated using Prism software. The concentration in the matrix of doxorubicin hydrochloride concentrations closest to the EC50 was then identified. • 2. […]"}
{"smiles": "[2H]c1nc(C)nc([2H])c1-c1cc(NC[C@@H](C)c2cccc3c(C(=O)NC)ccnc23)ncn1", "note": "[Compound B-2]", "values": [{"measurement": "Bliss AUC", "setting": "Experiment A: Compound B-2 added 0 h after doxorubicin hydrochloride, exposure 24 h", "value": 728}, {"measurement": "Bliss AUC", "setting": "Experiment B: Compound B-2 added at 0 h, exposure 16 h", "value": 101}, {"measurement": "Bliss AUC", "setting": "Experiment C: Compound B-2 added at 8 h, exposure 16 h", "value": 710}, {"measurement": "Bliss AUC", "setting": "Experiment E: Compound B-2 added at 4 h, exposure 12 h", "value": 266}, {"measurement": "Bliss AUC", "setting": "Experiment G: Compound B-2 added at 12 h, exposure 12 h", "value": 415}, {"measurement": "Bliss AUC", "setting": "Experiment H: Compound B-2 added at 0 h, exposure 8 h", "value": 71}, {"measurement": "Bliss AUC", "setting": "Experiment I: Compound B-2 added at 4 h, exposure 8 h", "value": 49}, {"measurement": "Bliss AUC", "setting": "Experiment J: Compound B-2 added at 8 h, exposure 8 h", "value": 12}, {"measurement": "Bliss AUC", "setting": "Experiment K: Compound B-2 added at 12 h, exposure 8 h", "value": 124}, {"measurement": "Bliss AUC", "setting": "Experiment L: Compound B-2 added at 16 h, exposure 8 h", "value": 323}]}
